Test results published in patent US6603023B2 (priority 1996, dated 2003).
Where two headings read alike, the source gives them in different places.

Columns and labels:
[1] = tested on: human mammary carcinoma MX-1 xenograft; design: Toxicity toward Nude Mice: key to the marks not given beside the values
Experimental: DMSO was used as a vehicle for epothilones. Each mouse received ≦40 μL DMSO in all experiments.
Athymic nude mice (nu/nu) were used for MX-1 and MCF-7/Adr human mammary carcinoma xenografts. Mice were obtained from Taconic Laboratory Animals and Service (Germantown, N.Y.: outbred, Swiss background).

CCRF-CEM/Taxol® = assay: CCRF-CEM/Taxol xenograft, i.v. 6 h infusion; format: in vivo, nude mice; conditions: CCRF/Taxol Leukemia; dEpoB 30 mg/kg Q2D x 6, Taxol 15 mg/kg Q2D x 6
Text: Treatment on days 6, 8, 10, 12 and 14.
Treatment on days 19, 21, 23, 25, 27, 39, 41, 43, 45 and 47.

[2] = tested on: Human Lymphoblastic Leukemia CCRF-CEM; assay: CCRF-CEM xenograft in nude mice, i.v. 6 h infusion; format: in vivo; conditions: for Average Body Weight, Day 21: initial weight
[3] = tested on: HT-29 Colon Adenocarcinoma; assay: HT-29 xenograft; format: in vivo, nude mice; conditions: dEpoB 30 mg/kg Q2D x 6, Taxol 15 mg/kg Q2D x 6
[4] = Hematology and blood chemistry toxicity in MX-1 bearing mice; conditions: day 30; dEpoB 25 mg/kg i.p. day 7-15 then 35 mg/kg day 17-25; Taxol 5 then 6 mg/kg; MX-1 bearing nude mice
[5] = male, athymic nude (nu/nu), outbred, Swiss background, mouse, in vivo
[6] = Dose DesoxyepoB 40, Taxol 20, i.v. infusion 6 hr on day 21,23,25,27
[7] = Table 26, Dose Q2D x 4: DesoxyepoB 40, Taxol 20

CC(=O)O[C@H]1C(=O)[C@@]2(C)[C@H]([C@H](OC(=O)c3ccccc3)[C@]3(O)C[C@H](OC(=O)[C@H](O)[C@@H](NC(=O)c4ccccc4)c4ccccc4)C(C)=C1C3(C)C)[C@]1(OC(C)=O)CO[C@@H]1C[C@@H]2O [Taxol ®, paclitaxel]
# Died of toxicity [1, 5]: 2/10
# Mice Died [1, 5]: 1/6
lethality [1, 5]: 2/6
lethality (mice died of toxicity) [1, 5]: 2/10
mice died of toxicity [1, 5]: 2 out of 10
Tumor Disappearance ([1]; mouse, in vivo): 5/5
mice died of toxicity ([1]; mouse, in vivo): four out of seven
Toxicity toward Nude Mice ([1]; mouse, in vivo, ip, 15 mg/kg): ++++
Toxicity toward Nude Mice ([1]; mouse, in vivo, ip, 35 mg/kg): ++
Toxicity toward Nude Mice ([1]; mouse, in vivo, iv, 15 mg/kg): ++
Toxicity toward Nude Mice ([1]; mouse, in vivo, iv, 24 mg/kg): ++
Toxicity toward Nude Mice ([1]; mouse, in vivo, iv, 30 mg/kg): ++
reduction in tumor volume ([1]; paclitaxel 5 mg/kg): 55%
average tumor size on day 24 ([1]; paclitaxel 5 mg/kg Q2Dx5 i.p. d8-16 and d18-26, n=10): 2285±97 mm^3
tumor reduction ([1]; paclitaxel 10 mg/kg): 89%
Lowest Average Tumor Size (T/C) (CCRF-CEM/Taxol®): 1.09 T/C
Tumor Disappearance (CCRF-CEM/Taxol®): 0
Tumor Disappearance ([2]; CCRF/CEM Leukemia, dEpoB 30 mg/kg Q2D x 5, Taxol 15 mg/kg Q2D x 5): 2/2
Average Body Weight Changes, Day 23 [2, 6]: -0.1 g
Average Body Weight Changes, Day 25 [2, 6]: -1.9 g
Average Body Weight Changes, Day 27 [2, 6]: -2.9 g
Average Body Weight Changes, Day 29 [2, 6]: -3.0 g
Average Body Weight Changes, Day 31 [2, 6]: -3.6 g
Average Body Weight Changes, Day 33 [2, 6]: -2.6 g
Average Body Weight Changes, Day 35 [2, 6]: -0.5 g
Average Body Weight Changes, Day 37 [2, 6]: +1.2 g
Average Body Weight Changes, Day 39 [2, 6]: +1.3 g
Average Body Weight Changes, Day 41 [2, 6]: +2.1 g
Average Tumor Size (T/C), Day 21 [2, 6]: 1.17 T/C
Average Tumor Size (T/C), Day 23 [2, 6]: 0.78 T/C
Average Tumor Size (T/C), Day 25 [2, 6]: 0.44 T/C
Average Tumor Size (T/C), Day 27 [2, 6]: 0.11 T/C
Average Tumor Size (T/C), Day 29 [2, 6]: 0 T/C
Average Tumor Size (T/C), Day 31 [2, 6]: 0 T/C
Average Tumor Size (T/C), Day 33 [2, 6]: 0 T/C
Average Tumor Size (T/C), Day 35 [2, 6]: 0 T/C
Proportion of Tumor Disappearance (n/total), Day 21 [2, 6]: 0/4
Proportion of Tumor Disappearance (n/total), Day 23 [2, 6]: 0/4
Proportion of Tumor Disappearance (n/total), Day 25 [2, 6]: 0/4
Proportion of Tumor Disappearance (n/total), Day 27 [2, 6]: 1/4
Proportion of Tumor Disappearance (n/total), Day 29 [2, 6]: 4/4
Proportion of Tumor Disappearance (n/total), Day 31 [2, 6]: 4/4
Proportion of Tumor Disappearance (n/total), Day 33 [2, 6]: 4/4
Proportion of Tumor Disappearance (n/total), Day 35 [2, 6]: 1/4
Proportion of Tumor Disappearance (n/total), Day 37 [2, 6]: 0/4
Proportion of Tumor Disappearance (n/total), Day 39 [2, 6]: 0/4
Proportion of Tumor Disappearance (n/total), Day 41 [2, 6]: 0.4
Average Body Weight Change, Day 23 [2, 7]: -0.1 g
Average Body Weight Change, Day 25 [2, 7]: -1.9 g
Average Body Weight Change, Day 27 [2, 7]: -2.9 g
Average Body Weight Change, Day 29 [2, 7]: -3.0 g
Average Body Weight Change, Day 31 [2, 7]: -3.6 g
Average Tumor Size (T/C), Day 23 [2, 7]: 0.78 T/C
Average Tumor Size (T/C), Day 25 [2, 7]: 0.44 T/C
Average Tumor Size (T/C), Day 27 [2, 7]: 0.11 T/C
Average Tumor Size (T/C), Day 29 [2, 7]: 0 T/C
Average Tumor Size (T/C), Day 31 [2, 7]: 0 T/C
Tumor Disappearance [2, 7]: 4/4
Average Body Weight, Day 21 [2, 7]: 29.0 g
Average Body Weight, Day 21 [2, 6]: 29.0 g
Lowest Average Tumor Size (T/C) [3]: 0.01 T/C
Tumor Disappearance [3]: 0
GOT [4]: 438 U/L
GPT [4]: 79 (n = 5) U/L
WBC Lymph [4]: 48%
WBC Neutrophils [4]: 51%
WBC Total [4]: 10.9 10^3/mm^3
